Experiment [1] addresses human catalytic domain ROCK II protein (amino acids 5-554) with a N-terminal GST tag (Homo sapiens, UniProt O75116). Description: biochemical.
Experiment [2] deals with cellular ROCK activity (cofilin phosphorylation at Ser3) in A7r5 rat smooth muscle cells. Kind of experiment: Cellular ROCK activity: cofilin (Ser3) phosphorylation, In-Cell Western assay. It is filed as cell-based. The note with it: Rattus norvegicus, A7R5, 1 h, 1 hour compound incubation, phospho-cofilin (Ser3), read-out: CELL_IC50. The procedure, abridged:
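A7r5 rat smooth muscle cells (3000/well, overnight) exposed to compound for 1 h at 37° C., then formaldehyde-fixed. Phospho-cofilin Ser3 detected by In-Cell Western with 800CW secondary antibody, read at 700 and 800 nm on an Odyssey imager.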

Molecules are shown by their SMILES. A value given as a limit tells only on which side of the number the result lay.

Chain of human catalytic domain ROCK II protein (amino acids 5-554) with a N-terminal GST tag (O75116 5-554): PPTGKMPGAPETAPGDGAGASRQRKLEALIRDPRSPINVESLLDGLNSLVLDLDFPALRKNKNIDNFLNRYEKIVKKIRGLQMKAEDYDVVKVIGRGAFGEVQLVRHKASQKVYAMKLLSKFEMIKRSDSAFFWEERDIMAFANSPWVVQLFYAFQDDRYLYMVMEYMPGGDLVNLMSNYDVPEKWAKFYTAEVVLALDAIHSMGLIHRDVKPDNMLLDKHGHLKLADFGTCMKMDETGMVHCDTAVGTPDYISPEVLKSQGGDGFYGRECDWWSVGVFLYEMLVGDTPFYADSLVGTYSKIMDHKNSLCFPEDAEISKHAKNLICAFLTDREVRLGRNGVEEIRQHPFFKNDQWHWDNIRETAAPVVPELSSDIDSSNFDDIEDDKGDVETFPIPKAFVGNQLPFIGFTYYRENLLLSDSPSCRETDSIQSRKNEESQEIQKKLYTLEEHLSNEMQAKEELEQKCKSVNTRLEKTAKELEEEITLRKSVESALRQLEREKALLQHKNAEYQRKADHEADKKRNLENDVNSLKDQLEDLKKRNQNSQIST

`COc1cc([C@@H](C)NC(=O)N2CCN(c3ccncc3F)C[C@H]2C)ccc1F` [Example 53, (R)—N—((R)-1-(4-Fluoro-3-methoxyphenyl)ethyl)-4-(3-fluoropyridin-4-yl)-2-methylpiperazine-1-carboxamide]: the IC50 was determined as 3.5 nM in experiment [1] and 33.3 nM in experiment [2].
The like results for `COc1cccc([C@@H](C)NC(=O)N2CCN(c3ccncc3F)CC2)c1` [Example 16, (R)-4-(3-fluoropyridin-4-yl)-N-(1-(3-methoxyphenyl)ethyl)piperazine-1-carboxamide] were, in that order, 7.6 nM and 122 nM.
Consider `COc1cccc([C@@H](C)NC(=O)N2CCN(c3ccncc3F)C[C@H]2C)c1` [Example 43, (R)-4-(3-Fluoropyridin-4-yl)-N—((R)-1-(3-methoxyphenyl)ethyl)-2-methylpiperazine-1-carboxamide], for which the IC50 in experiment [1] was determined as 2.9 nM; in experiment [2], 7.5 nM.
The like results for `C[C@@H]1CN(c2ccnc(F)c2)CCN1C(=O)N[C@H](C)c1cccc2c1OCO2` [Example 12, (R)—N—((R)-1-(Benzo[d][1,3]dioxol-4-yl)ethyl)-4-(2-fluoropyridin-4-yl)-2-methylpiperazine-1-carboxamide] were, in that order, 11.5 nM and 200 nM.
The corresponding values for `C[C@@H]1CN(c2ccncc2F)CCN1C(=O)NCc1ccccc1Cl` [Example 54, (R)—N-(2-Chlorobenzyl)-4-(3-fluoropyridin-4-yl)-2-methylpiperazine-1-carboxamide] are 13 nM and 144 nM.
Turning to `C[C@@H]1CN(c2ccncc2F)CCN1C(=O)N[C@H](C)c1cccc2occc12` [Example 142], the IC50 in experiment [1] worked out at 2.6 nM; in experiment [2], 9.1 nM.
Take `COc1cccc(CN2CC[C@H]3CN(c4ccncc4F)CCN3C2=O)c1` [Example 88, (S)-2-(3-Fluoropyridin-4-yl)-7-(3-methoxybenzyl)octahydro-6H-pyrazino[1,2-c]pyrimidin-6-one]: the IC50 worked out at 362 nM in experiment [1] and 3800 nM in experiment [2].
As to `Cc1cnc2cccc([C@H](C)NC(=O)N3CCN(c4ccncc4F)C[C@H]3C)n12` [Example 66, (R)-4-(3-Fluoropyridin-4-yl)-2-methyl-N—((S)-1-(3-methylimidazo[1,2-a]pyridin-5-yl)ethyl)piperazine-1-carboxamide], the IC50 in experiment [1] came out at 297 nM; in experiment [2] it was 1270 nM.
The corresponding values for `C[C@@H]1CN(c2ccncc2F)CCN1C(=O)NCc1cccc(OC(F)F)c1` [Example 139] are 10 nM and 486 nM.
`C[C@@H]1CN(c2ccnc(F)c2)CCN1C(=O)N[C@H](C)c1cccc2occc12` [Example 113]: the IC50 is 3.9 nM in experiment [1] and 122 nM in experiment [2].
`Cc1cnc2cccc([C@@H](C)NC(=O)N3CCN(c4ccncc4F)C[C@H]3C)n12` [Example 65, (R)-4-(3-Fluoropyridin-4-yl)-2-methyl-N—((R)-1-(3-methylimidazo[1,2-a]pyridin-5-yl)ethyl)piperazine-1-carboxamide]: the IC50 was 3.4 nM in experiment [1] and 13.2 nM in experiment [2].
On to `C[C@@H](NC(=O)N1CCN(c2ccnc(F)c2)[C@@H](C)C1)c1cccc(OC(F)F)c1` [Example 120], for which the results for the IC50 in experiment [1] and in experiment [2] were 59.5 nM and 3970 nM, respectively.
For the compound `COc1cccc([C@@H](C)NC(=O)N2CCN(c3ccncc3F)CC2)c1F` [Example 18, (R)—N-(1-(2-Fluoro-3-methoxyphenyl)ethyl)-4-(3-fluoropyridin-4-yl)piperazine-1-carboxamide], the IC50 is 198 nM in experiment [1] and 2550 nM in experiment [2].
The like results for `C[C@@H]1CN(c2ccnc(F)c2)CCN1C(=O)NCc1cccc2occc12` [Example 8, (R)—N-(Benzofuran-4-ylmethyl)-4-(2-fluoropyridin-4-yl)-2-methylpiperazine-1-carboxamide] were, in that order, 22 nM and 676 nM.
The like results for `C[C@@H](NC(=O)N1CCN(c2ccncc2F)CC1)c1cccc2c1CCO2` [Example 28, (R)—N-(1-(2,3-Dihydrobenzofuran-4-yl)ethyl)-4-(3-fluoropyridin-4-yl)piperazine-1-carboxamide] were, in that order, 2.8 nM and 27.2 nM.
On to `C[C@@H](NC(=O)N1CCN(c2ccnc(F)c2)[C@@H](C)C1)c1cccc2occc12` [Example 119], for which the IC50 in experiment [1] worked out at 10 nM; in experiment [2], 411 nM.
The like results for `[2H]C([2H])([2H])Oc1cccc([C@H](NC(=O)N2CCN(c3ccncc3F)C[C@H]2C)C([2H])([2H])[2H])c1` [Example 81, (R)-4-(3-Fluoropyridin-4-yl)-N—((R)-1-(3-(methoxy-d3)phenyl)ethyl-2,2,2-d3)-2-methylpiperazine-1-carboxamide] were, in that order, 3.7 nM and 8.1 nM.
The like results for `C[C@@H]1CN(c2ccncc2F)C[C@@H](C)N1C(=O)N[C@H](C)c1cccc2c1CCO2` [Example 96, (2R,6R)—N—((R)-1-(2,3-Dihydrobenzofuran-4-yl)ethyl)-4-(3-fluoropyridin-4-yl)-2,6-dimethylpiperazine-1-carboxamide] were, in that order, 6.5 nM and 34.7 nM.
Regarding `O=C(NCc1cccc2ncoc12)N1CCN(c2ccncc2F)CC1` [Example 39, N-(Benzo[d]oxazol-7-ylmethyl)-4-(3-fluoropyridin-4-yl)piperazine-1-carboxamide], the IC50 in experiment [1] was determined as 54.6 nM; in experiment [2], 559 nM.
The corresponding values for `[2H]C([2H])([2H])Oc1cccc([C@@H](C)NC(=O)N2CCN(c3ccnc(F)c3)C[C@H]2C)c1` [Example 115] are 8.1 nM and 138 nM.
Turning to `C[C@@H]1CN(c2ccncc2F)CCN1C(=O)N[C@H](C)c1cccc2c1CCO2` [Example 141], the values for the IC50 in experiment [1] and in experiment [2] were 1.8 nM and 1.7 nM, respectively.
Regarding `COc1cccc(CN2C[C@@H]3CN(c4ccncc4F)CCN3C2=O)c1` [Example 86, (S)-7-(3-Fluoropyridin-4-yl)-2-(3-methoxybenzyl)hexahydroimidazo[1,5-a]pyrazin-3(2H)-one], the IC50 in experiment [1] is 3210 nM; in experiment [2], at least 5000 nM.
The corresponding values for `COc1cccc([C@@H](C)NC(=O)N2CCN(c3ccncc3F)[C@H](C)C2)c1` [Example 91, (R)-4-(3-Fluoropyridin-4-yl)-N—((R)-1-(3-methoxyphenyl)ethyl)-3-methylpiperazine-1-carboxamide] are 150 nM and 783 nM.
In the case of `COc1ccc(F)c([C@@H](C)NC(=O)N2CCN(c3ccncc3F)C[C@H]2C)c1` [Example 134], the IC50 stood at 6.6 nM in experiment [1] and 108 nM in experiment [2].
The corresponding values for `C[C@@H]1CN(c2ccncc2F)CCN1C(=O)N[C@H](C)c1cccc2c1OCO2` [Example 68, (R)—N—((R)-1-(Benzo[d][1,3]dioxol-4-yl)ethyl)-4-(3-fluoropyridin-4-yl)-2-methylpiperazine-1-carboxamide] are 4.2 nM and 17 nM.
As for `COc1cccc([C@@H](C)NC(=O)N2CCN(c3ccncc3F)C[C@@H]2C)c1` [Example 133], the IC50 in experiment [1] stood at 167 nM; in experiment [2], 2440 nM.
Take `C[C@@H]1CN(c2ccnc(F)c2)CCN1C(=O)NCc1ccccc1Cl` [Example 106]: the figures for the IC50 in experiment [1] and in experiment [2] were 184 nM and 1620 nM, respectively.
The like results for `COc1cccc([C@@H](C)NC(=O)N2CCN(c3ccncc3F)[C@@H]3C[C@@H]32)c1` [Example 151] were, in that order, 51.9 nM and 703 nM.
The corresponding values for `COc1cccc([C@@H](C)NC(=O)N2CCN(c3ccncc3F)CC2C)c1` (some centres unmarked) [Example 154] are 19.6 nM and 60.2 nM.
The corresponding values for `C[C@@H](NC(=O)N1CCN(c2ccncc2F)CC1)c1cccc2c1CC(C)(C)O2` [Example 30, (R)—N-(1-(2,2-Dimethyl-2,3-dihydrobenzofuran-4-yl)ethyl)-4-(3-fluoropyridin-4-yl)piperazine-1-carboxamide] are 22.4 nM and 301 nM.
Turning to `CC(NC(=O)N1CCN(c2ccncc2F)CC1)c1c(F)cccc1Cl` (centres unmarked) [Example 26, N-(1-(2-Chloro-6-fluorophenyl)ethyl)-4-(3-fluoropyridin-4-yl)piperazine-1-carboxamide], the IC50 came out at 65.5 nM in experiment [1] and 1160 nM in experiment [2].
As for `C[C@@H]1CN(C(=O)N[C@H](C)c2ccccc2Cl)CCN1c1ccnc(F)c1` [Example 13, (R)—N—((R)-1-(2-Chlorophenyl)ethyl)-4-(2-fluoropyridin-4-yl)-3-methylpiperazine-1-carboxamide], the IC50 in experiment [1] was 4790 nM; in experiment [2] it was at least 5000 nM.
Consider `C[C@@H]1CN(c2ccncc2F)CCN1C(=O)OCc1cccc2nccn12` [Example 73, Imidazo[1,2-a]pyridin-5-ylmethyl (R)-4-(3-fluoropyridin-4-yl)-2-methylpiperazine-1-carboxylate], for which the values for the IC50 in experiment [1] and in experiment [2] were 227 nM and 1420 nM, respectively.
On to `Cc1cc2c([C@@H](C)NC(=O)N3CCN(c4ccncc4F)CC3)cccc2o1` [Example 31, (R)-4-(3-Fluoropyridin-4-yl)-N-(1-(2-methylbenzofuran-4-yl)ethyl)piperazine-1-carboxamide], for which the IC50 in experiment [1] was determined as 3.7 nM; in experiment [2], 189 nM.
With `C[C@H](NC(=O)N1CCN(c2ccncc2F)C[C@H]1C)c1cccc2c1N(C)CCO2` [Example 144], the IC50 was 12.8 nM in experiment [1] and 674 nM in experiment [2].
The corresponding values for `C[C@@H](NC(=O)N1CCN(c2ccncc2F)CC1)c1ccccc1Cl` [Example 124] are 61.1 nM and 1160 nM.
Regarding `COc1ccc(Cl)c([C@@H](C)NC(=O)N2CCN(c3ccncc3F)CC2)c1` [Example 24, (R)—N-(1-(2-Chloro-5-methoxyphenyl)ethyl)-4-(3-fluoropyridin-4-yl)piperazine-1-carboxamide], the IC50 in experiment [1] turned out to be 37.5 nM; in experiment [2] it was 902 nM.

Values taken from patent US12428413B2 (CHDI Foundation, Inc., priority 2019, dated 2025).
